Like-named read-outs stand apart in the source and are kept apart here.
How the values were obtained:
[1] = biological target: T1, human recombinant Monoacylglycerol Lipase (Homo sapiens, UniProt Q99685); assay: MAGL enzymatic assay (IC50; 7-HCA substrate added at T=0 min or T=30 min); type: biochemical; conditions: geometric mean of 2-5 determinations unless otherwise indicated
T1 sequence (Q99685 1-303): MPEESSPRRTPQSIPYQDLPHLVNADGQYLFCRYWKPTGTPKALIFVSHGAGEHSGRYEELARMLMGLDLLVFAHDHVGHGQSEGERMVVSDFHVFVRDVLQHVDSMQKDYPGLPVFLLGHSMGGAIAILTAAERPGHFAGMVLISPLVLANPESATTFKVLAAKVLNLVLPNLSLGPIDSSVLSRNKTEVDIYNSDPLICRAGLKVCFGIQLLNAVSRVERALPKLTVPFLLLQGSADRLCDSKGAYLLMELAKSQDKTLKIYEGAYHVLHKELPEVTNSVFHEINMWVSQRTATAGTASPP

[2] = biological target: T1, human recombinant Monoacylglycerol Lipase; assay: MAGL inactivation (kinact/KI from enzyme progress curves, T=0 min protocol); conditions: from plot of Kobs vs. compound concentration, geometric mean of 2-5 determinations (b: ≥6)
[3] = MAGL (T = 30 min) IC50, substrate 7-HCA added after 30 minute incubation (T=30 min)
[4] = substrate 7-HCA added immediately (T=0 min), read-out: MAGL (T = 0 min) IC50

Row | IC50 [1, 3] | IC50 [1, 4] | MAGL kinact/KI [2] | SMILES
1 | 4 nM | 49 nM | 9780 1/s per M | O=C(O[C@H](CO)C(F)(F)F)N1CCC2(CC1)CC(n1cc(Cl)cn1)CO2 (single isomer, unassigned) [Example 22]
2 | 4 nM | 32 nM | 17000 1/s per M | N#Cc1ccc(C2COC3(CCN(C(=O)O[C@H](CO)C(F)(F)F)CC3)C2)c(F)c1 (single isomer, unassigned) [Example 72]
3 | 2 nM | 21 nM | 33800 1/s per M | O=C(O[C@H](CO)C(F)(F)F)N1CCC2(CC1)CC(c1ccc(F)cn1)C2 [Example 2, (2R)-1,1,1-Trifluoro-3-hydroxypropan-2-yl 2-(5-fluoropyridin-2-yl)-7-azaspiro[3.5]nonane-7-carboxylate]
4 | 2 nM | 18 nM | 26000 1/s per M | O=C(O[C@H](CO)C(F)(F)F)N1CCC2(CC1)CC(c1ccc(C(F)F)cn1)C2 [Example 48, (2R)-1,1,1-trifluoro-3-hydroxypropan-2-yl 2-[5-(difluoromethyl)pyridin-2-yl]-7-azaspiro[3.5]nonane-7-carboxylate]
5 | 0.6 nM | 4 nM | 42100 1/s per M | O=C(O[C@H](CO)C(F)(F)F)N1CCC2(CC1)CC(Oc1ccc(C(F)F)cn1)C2 [Example 85, (2R)-1,1,1-trifluoro-3-hydroxypropan-2-yl 2-{[5-(difluoromethyl)pyridin-2-yl]oxy}-7-azaspiro[3.5]nonane-7-carboxylate]
6 | 0.6 nM | 4 nM | 82100 1/s per M | O=C(O[C@H](CO)C(F)(F)F)N1CCC2(CC1)CC(c1cccc(C(F)F)n1)C2 [Example 77, (2R)-1,1,1-trifluoro-3-hydroxypropan-2-yl 2-[6-(difluoromethyl)pyridin-2-yl]-7-azaspiro[3.5]nonane-7-carboxylate]
7 | 0.4 nM | 5 nM | 233000 1/s per M | O=C(O[C@H](CO)C(F)(F)F)N1CCC2(CC1)CC(c1c(F)cccc1F)CO2 (single isomer, unassigned) [Example 32]
8 | 2 nM | 22 nM | 40400 1/s per M | O=C(O[C@H](CO)C(F)(F)F)N1CCC2(CCC(n3cc(F)cn3)CO2)CC1 (single isomer, unassigned) [Example 70]
9 | 5 nM | 43 nM | 5180 1/s per M | O=C(O[C@H](CO)C(F)(F)F)N1CCC2(CC1)CC(c1ccc(C(F)F)cn1)CO2 (single isomer, unassigned) [Example 39]
10 | 9 nM | 96 nM | 6260 1/s per M | O=C(O[C@H](CO)C(F)(F)F)N1CCC2(CC1)CC(n1cc(F)cn1)C2 [Example 64, (2R)-1,1,1-trifluoro-3-hydroxypropan-2-yl 2-(4-fluoro-1H-pyrazol-1-yl)-7-azaspiro[3.5]nonane-7-carboxylate]
11 | 3 nM | 16 nM | 32800 1/s per M | O=C(O[C@H](CO)C(F)(F)F)N1CCC2(CC1)CC(n1cc(C(F)(F)F)cn1)CO2 (single isomer, unassigned) [Example 9]
12 | 0.4 nM | 4 nM | 309000 1/s per M | CN(C(=O)C(C)(C)C)C1CC2(CCN(C(=O)O[C@H](CO)C(F)(F)F)CC2)C1 [Example 42, (2R)-1,1,1-trifluoro-3-hydroxypropan-2-yl 2-[(2,2-dimethylpropanoyl)(methyl)amino]-7-azaspiro[3.5]nonane-7-carboxylate]
13 | 0.2 nM | 2 nM | 206000 1/s per M | O=C(O[C@H](CO)C(F)(F)F)N1CCC2(CC1)CC(c1cccc(C(F)(F)F)n1)C2 [Example 76, (2R)-1,1,1-trifluoro-3-hydroxypropan-2-yl 2-[6-(trifluoromethyl)pyridin-2-yl]-7-azaspiro[3.5]nonane-7-carboxylate]
14 | 3 nM | 31 nM | 23000 1/s per M | O=C(O[C@H](CO)C(F)(F)F)N1CCC2(CC1)CC(c1cc(C(F)F)ccn1)CO2 (single isomer, unassigned) [Example 35]
15 | 1 nM | 13 nM | 46200 1/s per M | O=C(O[C@H](CO)C(F)(F)F)N1CCC2(CC1)CC(c1ccnc(C(F)F)c1)C2 [Example 80, (2R)-1,1,1-trifluoro-3-hydroxypropan-2-yl 2-[2-(difluoromethyl)pyridin-4-yl]-7-azaspiro[3.5]nonane-7-carboxylate]
16 | 1 nM | 10 nM | 71900 1/s per M | O=C(O[C@H](CO)C(F)(F)F)N1CCC2(CCC(n3cc(C(F)(F)F)cn3)CO2)CC1 (single isomer, unassigned) [Example 69]
17 | 4 nM | 33 nM | 8060 1/s per M | N#Cc1ccc(C2COC3(CCN(C(=O)O[C@H](CO)C(F)(F)F)CC3)C2)cc1 (single isomer, unassigned) [Example 31]

Row | SMILES | IC50 [1, 3] | IC50 [1, 4] | MAGL kinact/KI [2]
18 | CN(C(=O)C1CCCC1)[C@H]1COC2(CCN(C(=O)O[C@H](CO)C(F)(F)F)CC2)C1 [Example 5, (2R)-1,1,1-Trifluoro-3-hydroxypropan-2-yl (3R)-3-[(cyclopentylcarbonyl)(methyl)amino]-1-oxa-8-azaspiro[4.5]decane-8-carboxylate] | 7 nM | 67 nM | 5530 1/s per M
19 | CN(C1CC2(CCN(C(=O)O[C@H](CO)C(F)(F)F)CC2)C1)S(=O)(=O)CC1CC1 [Example 18, (2R)-1,1,1-Trifluoro-3-hydroxypropan-2-yl 2-{[(cyclopropylmethyl)sulfonyl](methyl)amino}-7-azaspiro[3.5]nonane-7-carboxylate] | 4 nM | 52 nM | 14900 1/s per M

From patent US10626125B2, “1,1,1-trifluoro-3-hydroxypropan-2-yl carbamate derivatives as MAGL inhibitors” (PFIZER INC., priority 2017, dated 2020)
